Legend:
DLK = target: T1, DLK (Homo sapiens, UniProt Q12852); assay: DLK biochemical assay (TR-FRET, MKK7 phosphorylation)
T1 construct: 10 nM DLK, catalytic domain, Carna Biosiences; purchased Carna Biosciences ('Carna Biosiences' [sic])
T1 sequence (Q12852 125-366 limits assumed): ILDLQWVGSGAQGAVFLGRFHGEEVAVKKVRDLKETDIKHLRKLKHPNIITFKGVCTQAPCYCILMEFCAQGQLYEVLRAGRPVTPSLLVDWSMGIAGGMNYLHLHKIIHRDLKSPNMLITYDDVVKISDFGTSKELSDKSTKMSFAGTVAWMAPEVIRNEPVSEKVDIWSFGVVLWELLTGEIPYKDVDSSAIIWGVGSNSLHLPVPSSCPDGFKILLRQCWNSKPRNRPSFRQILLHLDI
How it was run: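 TR-FRET read-out (665/Eu ratio) of MKK7 T275/S277 phosphorylation, with inhibition lowering the signal. Final conditions: 10 nM DLK catalytic domain, 15 nM MKK7, 60 μM ATP, 90 min at RT. Detection incubation 16 h at 37° C in 1536-well or 4° C in 384-well format.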

LZK = target: T2, LZK (Homo sapiens, UniProt O43283); assay: LZK biochemical assay (TR-FRET, MKK7 phosphorylation)
T2 construct: 10 nM LZK, catalytic domain, Carna Biosiences in assay buffer; purchased Carna Biosciences ('Carna Biosiences' [sic])
T2 sequence (O43283 168-409 limits assumed): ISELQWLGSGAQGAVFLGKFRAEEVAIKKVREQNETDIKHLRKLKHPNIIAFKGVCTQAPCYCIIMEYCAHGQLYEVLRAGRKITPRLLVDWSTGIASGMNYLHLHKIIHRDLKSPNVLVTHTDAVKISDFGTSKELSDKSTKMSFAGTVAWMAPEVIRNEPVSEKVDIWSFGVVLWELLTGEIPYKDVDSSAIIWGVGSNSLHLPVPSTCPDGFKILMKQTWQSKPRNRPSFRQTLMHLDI
How it was run: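 Read-out is HTRF: Eu-labelled anti-phospho-MKK7 (T275/S277) and XL665 anti-His, incubated 16 h at 32 °C, with a drop in signal marking inhibition. Reaction beforehand: 10 nM LZK kinase domain, 15 nM His-MKK7, 15 µM ATP (final) for 90 min at room temperature, pH 7.5.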

Row | SMILES | IC50 (DLK) [nM] | IC50 (LZK) [nM]
1 | Nc1nc2cc(-c3cnn(C(c4ccccc4)C4CCOCC4)c3)cc(-c3cnn(CC(F)(F)F)c3)n2n1 (single isomer, unassigned) [II-148, 7-{1-[Phenyl(tetrahydro-2H-pyran-4-yl)methyl]-1H-pyrazol-4-yl}-5-[1-(2,2,2-trifluoroethyl)-1H-pyrazol-4-yl][1,2,4]triazolo[1,5-a]pyridin-2-amine] | 22 | 170
2 | CCC(c1ccc(C(F)F)nc1)n1cc(-c2cc(-c3cnn(CC(F)(F)F)c3)c3nc(N)nn3c2)cn1 (single isomer, unassigned) [II-106, 6-(1-{1-[6-(Difluoromethyl)pyridin-3-yl]propyl}-1H-pyrazol-4-yl)-8-[1-(2,2,2-trifluoroethyl)-1H-pyrazol-4-yl][1,2,4]triazolo[1,5-a]pyridin-2-amine] | 40 | 47
3 | CCC(c1ccc(C(F)(F)F)nc1)n1cc(-c2cc(-c3cnn(CC(F)F)c3)c3nc(N)nn3c2)cn1 (single isomer, unassigned) [II-110, 8-[1-(2,2-Difluoroethyl)-1H-pyrazol-4-yl]-6-(1-{1-[6-(trifluoromethyl)pyridin-3-yl]propyl}-1H-pyrazol-4-yl)[1,2,4]triazolo[1,5-a]pyridin-2-amine] | 2.2 | 9.7
4 | CCC(c1ccc(OC(F)(F)F)nc1)n1cc(-c2cc(-c3cnn(CC(F)(F)F)c3)n3nc(N)nc3c2)cn1 (racemic) [II-114, 5-[1-(2,2,2-Trifluoroethyl)-1H-pyrazol-4-yl]-7-(1-{1-[6-(trifluoromethoxy)pyridin-3-yl]propyl}-1H-pyrazol-4-yl)[1,2,4]triazolo[1,5-a]pyridin-2-amine] | 46 | 42
5 | CC[C@@H](c1ccccc1)n1cc(-c2cc(-c3cnn(CC(F)(F)F)c3)n3nc(N)nc3c2)cn1 [II-127, 7-{1-[(1S)-1-Phenylpropyl]-1H-pyrazol-4-yl}-5-[1-(2,2,2-trifluoroethyl)-1H-pyrazol-4-yl][1,2,4]triazolo[1,5-a]pyridin-2-amine] | 8.4 | 99
6 | Nc1nc2cc(-c3cnn(Cc4ccccc4)c3)cc(-c3cnn(C4CCOCC4)c3)n2n1 [II-126, 7-(1-Benzyl-1H-pyrazol-4-yl)-5-[1-(tetrahydro-2H-pyran-4-yl)-1H-pyrazol-4-yl][1,2,4]triazolo[1,5-a]pyridin-2-amine] | 60 | 220
7 | CS(=O)(=O)c1cccc(-c2cc(-c3cnn(C(c4ccc(C(F)(F)F)nc4)C4CCOCC4)c3)cn3nc(N)nc23)c1 (single isomer, unassigned) [II-14, 8-[3-(Methylsulfonyl)phenyl]-6-(1-{tetrahydro-2H-pyran-4-yl[6-(trifluoromethyl)pyridin-3-yl]methyl}-1H-pyrazol-4-yl)[1,2,4]triazolo[1,5-a]pyridin-2-amine] | 0.6 | 1.3
8 | CCC(c1ccc(C(F)(F)F)nc1)n1cc(-c2cc(-c3cc(CO)ccc3Cl)c3nc(N)nn3c2)cn1 (single isomer, unassigned) [II-3, {3-[2-Amino-6-(1-{1-[6-(trifluoromethyl)pyridin-3-yl]propyl}-1H-pyrazol-4-yl)[1,2,4]triazolo[1,5-a]pyridin-8-yl]-4-chlorophenyl}methanol] | 12 | 6.4
9 | CCC(c1ccc(C(F)F)nc1)n1cc(-c2cc(-c3cnn(CC(F)(F)F)c3)c3nc(N)nn3c2)cn1 (racemic) [II-105, 6-(1-{1-[6-(Difluoromethyl)pyridin-3-yl]propyl}-1H-pyrazol-4-yl)-8-[1-(2,2,2-trifluoroethyl)-1H-pyrazol-4-yl][1,2,4]triazolo[1,5-a]pyridin-2-amine] | 9.4 | 42
10 | CC(C)C(c1ccc(C(F)(F)F)nc1)n1cc(-c2cc(-c3ccc(C4CC4)nc3)n3nc(N)nc3c2)cn1 (single isomer, unassigned) [II-59, 5-(6-Cyclopropylpyridin-3-yl)-7-(1-{2-methyl-1-[6-(trifluoromethyl)pyridin-3-yl]propyl}-1H-pyrazol-4-yl)[1,2,4]triazolo[1,5-a]pyridin-2-amine] | 92 | 190
11 | CCC(c1ccc(C(F)(F)F)cc1)n1cc(-c2cc(-c3cnn(C)c3)c3nc(N)nn3c2)cn1 (single isomer, unassigned) [II-100, 8-(1-Methyl-1H-pyrazol-4-yl)-6-(1-{1-[4-(trifluoromethyl)phenyl]propyl}-1H-pyrazol-4-yl)[1,2,4]triazolo[1,5-a]pyridin-2-amine] | 58 | 500
12 | CC[C@@H](c1ccc(C(F)(F)F)nc1)n1cc(-c2cc(-c3ccc(=O)n(CC(F)(F)F)c3)n3nc(N)nc3c2)cn1 [II-190] | 2.9 | 5.4

Other lines, results leading:

Row | IC50 (DLK) [nM] | IC50 (LZK) [nM] | SMILES
13 | 2.1 | 11 | CCS(=O)(=O)c1cccc(-c2cc(-c3cnn(C(c4ccc(C(F)(F)F)nc4)C4CCOCC4)c3)cn3nc(N)nc23)c1 (single isomer, unassigned) [II-17, 8-[3-(Ethylsulfonyl)phenyl]-6-(1-{tetrahydro-2H-pyran-4-yl[6-(trifluoromethyl)pyridin-3-yl]methyl}-1H-pyrazol-4-yl)[1,2,4]triazolo[1,5-a]pyridin-2-amine]
14 | 6 | 51 | CCC(c1ccc(N2CCOCC2)cc1)n1cc(-c2cc(-c3cnn(CC(F)(F)F)c3)c3nc(N)nn3c2)cn1 (single isomer, unassigned) [II-104, 6-(1-{1-[4-(Morpholin-4-yl)phenyl]propyl}-1H-pyrazol-4-yl)-8-[1-(2,2,2-trifluoroethyl)-1H-pyrazol-4-yl][1,2,4]triazolo[1,5-a]pyridin-2-amine]
15 | 4.7 | 17 | CC[C@@H](c1ccc(C(F)(F)F)nc1)n1cc(-c2cc(-c3cnn(CC(F)(F)F)c3)c3nc(N)nn3c2)cn1 (single isomer, unassigned) [II-112, 8-[1-(2,2,2-trifluoroethyl)-1H-pyrazol-4-yl]-6-(1-{1-[6-(trifluoromethyl)pyridin-3-yl]propyl}-1H-pyrazol-4-yl)[1,2,4]triazolo[1,5-a]pyridin-2-amine]
16 | 1.1 | 3.5 | CCS(=O)(=O)c1cccc(-c2cc(-c3cnn(C(c4ccc(C(F)(F)F)nc4)C4CCOCC4)c3)cn3nc(N)nc23)c1 (racemic) [II-16, 8-[3-(Ethylsulfonyl)phenyl]-6-(1-{tetrahydro-2H-pyran-4-yl[6-(trifluoromethyl)pyridin-3-yl]methyl}-1H-pyrazol-4-yl)[1,2,4]triazolo[1,5-a]pyridin-2-amine]
17 | 15 | 32 | CCC(c1ccc(C(F)(F)F)nc1)n1cc(-c2cc(-c3ccc(=O)n(CC(F)(F)F)c3)n3nc(N)nc3c2)cn1 (single isomer, unassigned) [II-189, 5-[2-Amino-7-(1-{1-[6-(trifluoromethyl)pyridin-3-yl]propyl}-1H-pyrazol-4-yl)[1,2,4]triazolo[1,5-a]pyridin-5-yl]-1-(2,2,2-trifluoroethyl)pyridin-2(1H)-one]
18 | 18 | 14 | CCC(c1ccc(C(F)(F)F)nc1)n1cc(-c2cc(-c3ccc(C4CC4)nc3)n3nc(N)nc3c2)cn1 (single isomer, unassigned) [II-57, 5-(6-Cyclopropylpyridin-3-yl)-7-(1-{1-[6-(trifluoromethyl)pyridin-3-yl]propyl}-1H-pyrazol-4-yl)[1,2,4]triazolo[1,5-a]pyridin-2-amine]
19 | 11 | 7.9 | CC(C)C(c1ccc(C(F)(F)F)nc1)n1cc(-c2cc(-c3ccc(C4CC4)nc3)n3nc(N)nc3c2)cn1 (single isomer, unassigned) [II-60, 5-(6-Cyclopropylpyridin-3-yl)-7-(1-{2-methyl-1-[6-(trifluoromethyl)pyridin-3-yl]propyl}-1H-pyrazol-4-yl)[1,2,4]triazolo[1,5-a]pyridin-2-amine]
20 | 2.3 | 73 | Nc1nc2cc(-c3cnn(C(c4ccccc4)C4CCOCC4)c3)cc(-c3cnn(CC(F)(F)F)c3)n2n1 (single isomer, unassigned) [II-147, 7-{1-[Phenyl(tetrahydro-2H-pyran-4-yl)methyl]-1H-pyrazol-4-yl}-5-[1-(2,2,2-trifluoroethyl)-1H-pyrazol-4-yl][1,2,4]triazolo[1,5-a]pyridin-2-amine]
21 | 55 | 290 | Nc1nc2cc(-c3cnn(Cc4ccccc4)c3)cc(-c3cnc(C4CC4)nc3)n2n1 [II-84, 7-(1-Benzyl-1H-pyrazol-4-yl)-5-(2-cyclopropylpyrimidin-5-yl)[1,2,4]triazolo[1,5-a]pyridin-2-amine]
22 | 750 | 380 | Nc1nc2c(-c3ccc(C(F)(F)F)nc3)cc(-c3cnn(C4CCN(C5COC5)CC4)c3)cn2n1 [II-46, 6-{1-[1-(Oxetan-3-yl)piperidin-4-yl]-1H-pyrazol-4-yl}-8-[6-(trifluoromethyl)pyridin-3-yl][1,2,4]triazolo[1,5-a]pyridin-2-amine]

Reference: patent publication US20230086702A1, “SUBSTITUTED 2-AMINO-PYRAZOLYL-[1,2,4]TRIAZOLO[1,5A]PYRIDINE DERIVATIVES AND USE THEREOF” (The Johns Hopkins University, priority 2019, published 2023)
